Series [1] addresses T1, Urotensin-2 receptor (Rattus norvegicus, UniProt P49684).
T1 sequence (P49684 whole entry): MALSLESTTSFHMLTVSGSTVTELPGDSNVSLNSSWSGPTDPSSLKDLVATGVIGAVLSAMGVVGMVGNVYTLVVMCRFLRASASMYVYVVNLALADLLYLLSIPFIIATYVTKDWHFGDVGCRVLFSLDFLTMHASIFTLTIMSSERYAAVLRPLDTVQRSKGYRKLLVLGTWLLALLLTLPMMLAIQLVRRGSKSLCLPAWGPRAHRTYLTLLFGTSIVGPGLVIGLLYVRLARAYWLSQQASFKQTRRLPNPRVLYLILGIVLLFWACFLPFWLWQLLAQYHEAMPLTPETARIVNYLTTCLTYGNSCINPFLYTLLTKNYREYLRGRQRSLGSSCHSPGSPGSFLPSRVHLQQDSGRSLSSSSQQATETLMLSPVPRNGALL
Nature of the series: Agonist activity at UT receptor in rat aorta assessed as contraction. The format is tissue-based.

Series [2] concerns the target T2, Urotensin-2 receptor (Homo sapiens, UniProt Q9UKP6).
T2 sequence (Q9UKP6 whole entry): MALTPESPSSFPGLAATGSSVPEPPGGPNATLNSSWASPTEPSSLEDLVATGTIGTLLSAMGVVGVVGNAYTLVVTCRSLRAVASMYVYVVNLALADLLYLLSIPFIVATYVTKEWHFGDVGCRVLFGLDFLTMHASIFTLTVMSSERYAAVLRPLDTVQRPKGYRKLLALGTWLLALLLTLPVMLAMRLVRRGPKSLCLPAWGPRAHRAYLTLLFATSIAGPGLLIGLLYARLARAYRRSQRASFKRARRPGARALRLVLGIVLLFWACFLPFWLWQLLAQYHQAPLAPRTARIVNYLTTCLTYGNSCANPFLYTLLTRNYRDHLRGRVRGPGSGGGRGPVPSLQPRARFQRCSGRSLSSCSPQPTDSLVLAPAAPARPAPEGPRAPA
Nature of the series: Displacement of [125I]urotensin-2 from human recombinant UT receptor expressed in CHO-K1 cells by scintillation counting method. The format is cell-based.

Series [3] deals with T3, Urotensin-2 receptor (Rattus norvegicus) (UniProt P49684).
T3 sequence (whole entry): T1 sequence (P49684 whole entry)
Nature of the series: Agonist activity at UT receptor in rat aorta assessed as contraction relative to urotensin-2. The format is tissue-based.

The nature of series [4]: Stability in 25% fetal calf serum assessed as parent compound remaining at 80 uM at 37 degC after 16 hrs by RP-HPLC-UV based detection assay. The format is ADME, Bos taurus. Particulars: cattle, read-out: Stability.
A short description of series [5]: Stability in 25% fetal calf serum assessed as parent compound remaining at 80 uM at 37 degC after 36 hrs by RP-HPLC-UV based detection assay. The format is ADME, Bos taurus. Particulars: cattle, read-out: Stability.

SMILES strings stand for the structures. Peptide text beside a SMILES is read from it.

With `CC(C)[C@H](NC(=O)[C@@H]1CSSC(C)(C)[C@H](NC(=O)[C@@H](N)CC(=O)O)C(=O)N[C@@H](Cc2ccccc2)C(=O)N[C@@H](Cc2c[nH]c3ccccc23)C(=O)N[C@@H](CCCCN)C(=O)N[C@@H](Cc2ccc3ccccc3c2)C(=O)N1)C(=O)O` (HELM PEPTIDE1{D.[Pen].F.W.K.[O=C([C@H](Cc1ccc2ccccc2c1)N[*:1])[*:2]].C.V}$PEPTIDE1,PEPTIDE1,2:R3-7:R3$$$V2.0), at Urotensin-2 receptor [1], the EC50 is 0.724 nM. Besides, on Urotensin-2 receptor [2], the inhibition constant Ki was 2 nM. Also, the Emax in series [3] is 85%.
On to `CC(C)[C@H](NC(=O)[C@@H]1CSSC(C)(C)[C@H](NC(=O)[C@@H](N)CC(=O)O)C(=O)N[C@@H](Cc2ccccc2)C(=O)N[C@@H](Cc2c[nH]c3ccccc23)C(=O)N[C@@H](CCCCN)C(=O)N[C@@H](Cc2ccc(Cl)c(Cl)c2)C(=O)N1)C(=O)O` (HELM PEPTIDE1{D.[Pen].F.W.K.[O=C([C@H](Cc1ccc(Cl)c(Cl)c1)N[*:1])[*:2]].C.V}$PEPTIDE1,PEPTIDE1,2:R3-7:R3$$$V2.0), for which the remaining at 16 h, 80 µM in series [4] was above 70%. The EC50 at Urotensin-2 receptor [1] was 0.0126 nM. For the same compound, on Urotensin-2 receptor [2], the inhibitory constant (Ki) was 0.776 nM. The Emax in series [3] is 102%. Besides, in series [5], the remaining at 36 h, 80 µM was above 50%.
Consider `CC(C)[C@H](NC(=O)[C@@H]1CSSC(C)(C)[C@H](NC(=O)[C@@H](N)CC(=O)O)C(=O)N[C@@H](Cc2ccccc2)C(=O)N[C@H](Cc2c[nH]c3ccccc23)C(=O)N[C@@H](CCCN)C(=O)N[C@@H](Cc2ccc(O)cc2)C(=O)N1)C(=O)O` [URANTIDE] (HELM PEPTIDE1{D.[Pen].F.[dW].[Orn].Y.C.V}$PEPTIDE1,PEPTIDE1,2:R3-7:R3$$$V2.0), for which the remaining at 36 h, 80 µM in series [5] is above 50%.
With `CC(C)[C@H](NC(=O)[C@@H]1CSSC(C)(C)[C@H](NC(=O)[C@@H](N)CC(=O)O)C(=O)N[C@@H](Cc2ccccc2)C(=O)N[C@H](Cc2c[nH]c3ccccc23)C(=O)N[C@@H](CCCN)C(=O)N[C@@H](Cc2ccc(Cl)c(Cl)c2)C(=O)N1)C(=O)O`, the concentration for a half-maximal effect (EC50) at Urotensin-2 receptor [1] is 12.9 nM. The Ki on Urotensin-2 receptor [2] is 2.24 nM. In series [3], the Emax was found to be 26%.
`CC(C)[C@H](NC(=O)[C@@H]1CSSC(C)(C)[C@H](NC(=O)[C@@H](N)CC(=O)O)C(=O)N[C@@H](Cc2ccccc2)C(=O)N[C@H](Cc2c[nH]c3ccccc23)C(=O)N[C@@H](CCCN)C(=O)N[C@@H](Cc2nc3ccccc3s2)C(=O)N1)C(=O)O`: the EC50 at Urotensin-2 receptor [1] was 33.9 nM. Besides, the Ki on Urotensin-2 receptor [2] was 12.9 nM. For the same compound, the maximal response (Emax) in series [3] came out at 57%.
For `CC(C)[C@H](NC(=O)[C@@H]1CSSC(C)(C)[C@H](NC(=O)[C@@H](N)CC(=O)O)C(=O)N[C@@H](Cc2ccccc2)C(=O)N[C@@H](Cc2c[nH]c3ccccc23)C(=O)N[C@@H](CCCCN)C(=O)N[C@@H](Cc2ccc(C#N)cc2)C(=O)N1)C(=O)O` (HELM PEPTIDE1{D.[Pen].F.W.K.[N#Cc1ccc(C[C@H](N[*:1])C(=O)[*:2])cc1].C.V}$PEPTIDE1,PEPTIDE1,2:R3-7:R3$$$V2.0) the same measures were 1.07 nM, 1.82 nM and 79%.
Consider `CC(C)[C@H](NC(=O)[C@@H]1CSSC[C@H](NC(=O)[C@@H](N)CC(=O)O)C(=O)N[C@@H](Cc2ccccc2)C(=O)N[C@@H](Cc2c[nH]c3ccccc23)C(=O)N[C@@H](CCCCN)C(=O)N[C@@H](Cc2ccc(O)cc2)C(=O)N1)C(=O)O` (HELM PEPTIDE1{D.C.F.W.K.Y.C.V}$PEPTIDE1,PEPTIDE1,2:R3-7:R3$$$V2.0), for which the remaining at 16 h, 80 µM in series [4] is below 50%. Besides, the EC50 on Urotensin-2 receptor [1] was 3.63 nM. The Ki on Urotensin-2 receptor [2] was 0.251 nM. The Emax in series [3] is 100%.
Regarding `CC(C)[C@H](NC(=O)[C@@H]1CSSC(C)(C)[C@H](NC(=O)[C@@H](N)CC(=O)O)C(=O)N[C@@H](Cc2ccccc2)C(=O)N[C@@H](Cc2c[nH]c3ccccc23)C(=O)N[C@@H](CCCCN)C(=O)N[C@@H](Cc2ccc([N+](=O)[O-])cc2)C(=O)N1)C(=O)O` (HELM PEPTIDE1{D.[Pen].F.W.K.[O=C([C@H](Cc1ccc([N+](=O)[O-])cc1)N[*:1])[*:2]].C.V}$PEPTIDE1,PEPTIDE1,2:R3-7:R3$$$V2.0), the 50% effective concentration (EC50) at Urotensin-2 receptor [1] is 0.631 nM. On Urotensin-2 receptor [2], the Ki is 1.78 nM. The maximal effect (Emax) in series [3] was 95%.
Consider `CC(C)[C@H](NC(=O)[C@@H]1CSSC[C@H](NC(=O)[C@H](CC(=O)O)NC(=O)[C@@H]2CCCN2C(=O)[C@@H](NC(=O)[C@@H](N)CCC(=O)O)[C@@H](C)O)C(=O)N[C@@H](Cc2ccccc2)C(=O)N[C@@H](Cc2c[nH]c3ccccc23)C(=O)N[C@@H](CCCCN)C(=O)N[C@@H](Cc2ccc(O)cc2)C(=O)N1)C(=O)O` [UROTENSIN-II], for which the half-maximal effective concentration (EC50) on Urotensin-2 receptor [1] is 3.16 nM. In addition, the Emax in series [3] was determined as 100%.
As for `CC(C)[C@H](NC(=O)[C@@H]1CSSC(C)(C)[C@H](NC(=O)[C@@H](N)CC(=O)O)C(=O)N[C@@H](Cc2ccccc2)C(=O)N[C@@H](Cc2c[nH]c3ccccc23)C(=O)N[C@@H](CCCCN)C(=O)N[C@@H](Cc2ccc(Cl)cc2)C(=O)N1)C(=O)O` (HELM PEPTIDE1{D.[Pen].F.W.K.[O=C([C@H](Cc1ccc(Cl)cc1)N[*:1])[*:2]].C.V}$PEPTIDE1,PEPTIDE1,2:R3-7:R3$$$V2.0), the EC50 on Urotensin-2 receptor [1] is 0.813 nM. For the same compound, on Urotensin-2 receptor [2], the inhibition constant (Ki) is 1.23 nM. The Emax in series [3] was 85%.
Regarding `CC(C)[C@H](NC(=O)[C@@H]1CSSC(C)(C)[C@H](NC(=O)[C@@H](N)CC(=O)O)C(=O)N[C@@H](Cc2ccccc2)C(=O)N[C@@H](Cc2c[nH]c3ccccc23)C(=O)N[C@@H](CCCCN)C(=O)N[C@@H](Cc2ccc(O)cc2)C(=O)N1)C(=O)O` (HELM PEPTIDE1{D.[Pen].F.W.K.Y.C.V}$PEPTIDE1,PEPTIDE1,2:R3-7:R3$$$V2.0), in series [4], the remaining at 16 h, 80 µM turned out to be 65%. Besides, at Urotensin-2 receptor [1], the half-maximal effective concentration (EC50) was 0.398 nM. For the same compound, the Ki on Urotensin-2 receptor [2] is 0.2 nM. Further, the Emax in series [3] came out at 95%. In addition, in series [5], the remaining at 36 h, 80 µM was found to be 45%.
Consider `CC(C)[C@H](NC(=O)[C@@H]1CSSC(C)(C)[C@H](NC(=O)[C@@H](N)CC(=O)O)C(=O)N[C@@H](Cc2ccccc2)C(=O)N[C@H](Cc2c[nH]c3ccccc23)C(=O)N[C@@H](CCCN)C(=O)N[C@@H](Cc2ccc(Cl)cc2)C(=O)N1)C(=O)O`, for which, on Urotensin-2 receptor [1], the EC50 is 2.69 nM. The inhibitory constant (Ki) on Urotensin-2 receptor [2] was 1.05 nM. In addition, the Emax in series [3] was found to be 13%.
For `CC(C)[C@H](NC(=O)[C@@H]1CSSC(C)(C)[C@H](NC(=O)[C@@H](N)CC(=O)O)C(=O)N[C@@H](Cc2ccccc2)C(=O)N[C@H](Cc2c[nH]c3ccccc23)C(=O)N[C@@H](CCCN)C(=O)N[C@@H](Cc2ccc3ccccc3c2)C(=O)N1)C(=O)O` the same measures were 3.8 nM, 0.724 nM and 13%.
For `CC(C)[C@H](NC(=O)[C@@H]1CSSC(C)(C)[C@H](NC(=O)[C@@H](N)CC(=O)O)C(=O)N[C@@H](Cc2ccccc2)C(=O)N[C@@H](Cc2c[nH]c3ccccc23)C(=O)N[C@@H](CCCCN)C(=O)N[C@@H](Cc2nc3ccccc3s2)C(=O)N1)C(=O)O` (HELM PEPTIDE1{D.[Pen].F.W.K.[O=C([C@H](Cc1nc2ccccc2s1)N[*:1])[*:2]].C.V}$PEPTIDE1,PEPTIDE1,2:R3-7:R3$$$V2.0) the same measures were 0.0195 nM, 1.74 nM and 89%.
For `CC(C)[C@H](NC(=O)[C@@H]1CSSC(C)(C)[C@H](NC(=O)[C@@H](N)CC(=O)O)C(=O)N[C@@H](Cc2ccccc2)C(=O)N[C@@H](Cc2c[nH]c3ccccc23)C(=O)N[C@@H](CCCCN)C(=O)N[C@@H](Cc2cccc3ccccc23)C(=O)N1)C(=O)O` (HELM PEPTIDE1{D.[Pen].F.W.K.[O=C([C@H](Cc1cccc2ccccc12)N[*:1])[*:2]].C.V}$PEPTIDE1,PEPTIDE1,2:R3-7:R3$$$V2.0), on Urotensin-2 receptor [1], the EC50 is 5.01 nM. The Ki on Urotensin-2 receptor [2] is 0.398 nM. Moreover, the Emax in series [3] stood at 86%.
In the case of `CC(C)[C@H](NC(=O)[C@@H]1CSSC(C)(C)[C@H](NC(=O)[C@@H](N)CC(=O)O)C(=O)N[C@@H](Cc2ccccc2)C(=O)N[C@H](Cc2c[nH]c3ccccc23)C(=O)N[C@@H](CCCN)C(=O)N[C@@H](Cc2cccc3ccccc23)C(=O)N1)C(=O)O`, at Urotensin-2 receptor [1], the EC50 is 18.2 nM. For the same compound, the Ki at Urotensin-2 receptor [2] is 6.46 nM. Besides, the Emax in series [3] was determined as 37%.
